# Target: T1, purified human HDAC6 (Homo sapiens, UniProt Q9UBN7)
# T1 construct: purchased BPS Bioscience 5006
# T1 sequence (Q9UBN7 1-1215): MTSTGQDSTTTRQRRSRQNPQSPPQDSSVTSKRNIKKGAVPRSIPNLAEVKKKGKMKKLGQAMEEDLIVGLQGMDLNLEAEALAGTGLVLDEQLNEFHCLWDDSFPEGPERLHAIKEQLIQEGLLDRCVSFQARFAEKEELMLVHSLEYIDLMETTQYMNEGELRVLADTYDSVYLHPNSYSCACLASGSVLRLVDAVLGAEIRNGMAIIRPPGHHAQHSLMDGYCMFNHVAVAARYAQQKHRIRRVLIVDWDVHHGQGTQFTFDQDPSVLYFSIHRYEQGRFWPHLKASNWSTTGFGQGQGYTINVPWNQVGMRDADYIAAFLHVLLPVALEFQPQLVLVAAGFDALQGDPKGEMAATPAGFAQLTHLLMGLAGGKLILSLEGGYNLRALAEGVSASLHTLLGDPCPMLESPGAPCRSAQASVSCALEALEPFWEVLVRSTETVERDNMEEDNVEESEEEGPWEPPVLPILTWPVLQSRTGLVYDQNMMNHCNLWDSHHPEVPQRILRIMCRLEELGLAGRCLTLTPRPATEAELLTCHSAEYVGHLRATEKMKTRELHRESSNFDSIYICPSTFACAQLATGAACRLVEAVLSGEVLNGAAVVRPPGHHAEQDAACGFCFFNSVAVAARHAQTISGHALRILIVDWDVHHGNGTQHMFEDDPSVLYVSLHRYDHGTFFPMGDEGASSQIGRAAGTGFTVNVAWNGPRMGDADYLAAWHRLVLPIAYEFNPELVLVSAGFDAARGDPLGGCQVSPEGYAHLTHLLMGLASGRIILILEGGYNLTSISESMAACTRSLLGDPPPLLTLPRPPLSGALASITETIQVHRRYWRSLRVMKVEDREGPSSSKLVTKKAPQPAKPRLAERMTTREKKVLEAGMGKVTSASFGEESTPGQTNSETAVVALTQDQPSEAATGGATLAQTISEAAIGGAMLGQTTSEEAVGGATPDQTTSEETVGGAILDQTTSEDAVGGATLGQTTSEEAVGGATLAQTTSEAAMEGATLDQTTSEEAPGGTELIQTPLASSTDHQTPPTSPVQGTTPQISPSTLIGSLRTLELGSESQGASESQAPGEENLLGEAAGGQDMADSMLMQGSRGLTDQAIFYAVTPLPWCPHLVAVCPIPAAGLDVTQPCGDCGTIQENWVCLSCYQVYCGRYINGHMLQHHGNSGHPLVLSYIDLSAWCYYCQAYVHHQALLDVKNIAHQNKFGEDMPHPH
# Experiment: HDAC6 Enzyme Assay
# Type: biochemical
# Conditions: compound concentration 0.37 μM, read-out: Percent Inhibition
# Procedure: To measure the inhibition of HDAC6 activity, purified human HDAC6 (BPS Bioscience; Cat. No. 5006) is incubated with substrate Ac-Arg-Gly-Lys(Ac)-AMC peptide (Bachem Biosciences; Cat. No. I-1925) for 1 hour at 30° C. in the presence of test compounds or vehicle DMSO control. The reaction is stopped with the HDAC inhibitor trichostatin A (Sigma; Cat. No. T8552) and the amount of Arg-Gly-Lys-AMC generated is quantitated by digestion with trypsin (Sigma; Cat. No. T1426) and subsequent measurement of the amount of AMC released using a fluorescent plate reader (Pherastar; BMG Technologies) set at Ex 340 nm and Em 460 nm. Concentration response curves are generated by calculating the fluorescence increase in test compound-treated samples relative to DMSO-treated controls, and percentage inhibition values at a single concentration or enzyme inhibition (IC50) values are determined from those curves. One skilled in the art will appreciate that the values generated either as percentage inhibition at a single concentration or IC50 values are subject to experimental variation.
row,Structure (SMILES),inhibition at 0.37 µM [%]
1,"O=C(NO)c1ccc2ccn(Cc3ccc(-n4cccc4)cc3)c(=O)c2c1 [Compound I-305, N-hydroxy-1-oxo-2-[4-(1H-pyrrol-1-yl)benzyl]-1,2-dihydroisoquinoline-7-carboxamide]",99
2,"O=C(NO)c1ccc2ncn(Cc3cccc(-c4cc(C(F)(F)F)cc(C(F)(F)F)c4)c3)c(=O)c2c1 [Compound I-79, 3-{[3′,5′-bis(trifluoromethyl)biphenyl-3-yl]methyl}-N-hydroxy-4-oxo-3,4-dihydroquinazoline-6-carboxamide]",84.1
3,"Cn1cc(-c2cccc(Cn3ccc4ccc(C(=O)NO)cc4c3=O)c2)cn1 [Compound I-319, N-hydroxy-2-[3-(1-methyl-1H-pyrazol-4-yl)benzyl]-1-oxo-1,2-dihydroisoquinoline-7-carboxamide]",98.6
4,"O=C(NO)c1ccc2ccn(-c3ccccn3)c(=O)c2c1 [Compound I-310, N-hydroxy-1-oxo-2-pyridin-2-yl-1,2-dihydroisoquinoline-7-carboxamide]",90.3
5,"O=C(NO)c1ccc2c(=O)n(Cc3ccc(C(F)(F)F)cc3)c(CC3CCCCC3)nc2c1 [Compound I-53, 2-(cyclohexylmethyl)-N-hydroxy-4-oxo-3-[4-(trifluoromethyl)benzyl]-3,4-dihydroquinazoline-7-carboxamide]",65.5
6,"O=C(NO)c1ccc2ncn(Cc3cccc(-c4ccccc4C(F)(F)F)c3)c(=O)c2c1 [Compound I-124, N-hydroxy-4-oxo-3-{[2′-(trifluoromethyl)biphenyl-3-yl]methyl}-3,4-dihydroquinazoline-6-carboxamide]",91.4
7,"CNCc1cn(Cc2ccccc2)c(=O)c2cc(C(=O)NO)ccc12 [Compound I-418, 2-benzyl-N-hydroxy-4-[(methylamino)methyl]-1-oxo-1,2-dihydroisoquinoline-7-carboxamide]",29.5
8,"CC(=O)Nc1cccc(-c2cccc(Cn3cnc4ccc(C(=O)NO)cc4c3=O)c2)c1 [Compound I-60, 3-{[3′-(acetylamino)biphenyl-3-yl]methyl}-N-hydroxy-4-oxo-3,4-dihydroquinazoline-6-carboxamide]",98.4
9,"COc1ccncc1-c1nc2cc(C(=O)NO)ccc2c(=O)[nH]1 [Compound I-410, N-hydroxy-2-(4-methoxypyridin-3-yl)-4-oxo-3,4-dihydroquinazoline-7-carboxamide]",68.1
10,"O=C(NO)c1ccc2ccn(-c3ccccc3F)c(=O)c2c1 [Compound I-346, 2-(2-fluorophenyl)-N-hydroxy-1-oxo-1,2-dihydroisoquinoline-7-carboxamide]",87
11,"O=C(NO)c1ccc2c(=O)n(Cc3ccc(C(F)(F)F)cc3)c(CCc3ccccc3)nc2c1 [Compound I-39, N-hydroxy-4-oxo-2-(2-phenylethyl)-3-[4-(trifluoromethyl)benzyl]-3,4-dihydroquinazoline-7-carboxamide]",84.5

# Same assay, conditions: compound concentration 0.412 μM, read-out: Percent Inhibition
row,Structure (SMILES),inhibition at 0.412 µM [%]
1,"CS(=O)(=O)c1ccc(Cn2ccc3ccc(C(=O)NO)cc3c2=O)cc1 [Compound I-186, N-hydroxy-2-[4-(methylsulfonyl)benzyl]-1-oxo-1,2-dihydroisoquinoline-7-carboxamide]",95.5
2,"O=C(NO)c1ccc2ccn(CCOc3ccccc3Cl)c(=O)c2c1 [Compound I-204, 2-[2-(2-chlorophenoxy)ethyl]-N-hydroxy-1-oxo-1,2-dihydroisoquinoline-7-carboxamide]",98.7
3,"O=C(NO)c1ccc2ccn(CCNc3ccc(Cl)cc3)c(=O)c2c1 [Compound I-113, 2-{2-[(4-chlorophenyl)amino]ethyl}-N-hydroxy-1-oxo-1,2-dihydroisoquinoline-7-carboxamide]",95.6
4,"CCN(CC)Cc1nc2cc(C(=O)NO)ccc2c(=O)[nH]1 [Compound I-84, 2-[(diethylamino)methyl]-N-hydroxy-4-oxo-3,4-dihydroquinazoline-7-carboxamide]",60.5
5,"O=C(NO)c1ccc2ccn(CC(c3ccccc3)C3CCCCC3)c(=O)c2c1 (centres unmarked) [Compound I-96, 2-(2-cyclohexyl-2-phenylethyl)-N-hydroxy-1-oxo-1,2-dihydroisoquinoline-7-carboxamide]",80.9
6,"O=C(NO)c1ccc2ncn(CCCc3ccccc3)c(=O)c2c1 [Compound I-239, N-hydroxy-4-oxo-3-(3-phenylpropyl)-3,4-dihydroquinazoline-6-carboxamide]",93.8
7,"CCOCCn1ccc2ccc(C(=O)NO)cc2c1=O [Compound I-218, 2-(2-ethoxyethyl)-N-hydroxy-1-oxo-1,2-dihydroisoquinoline-7-carboxamide]",90.4
8,"O=C(NO)c1ccc2c(=O)n(Cc3ccc(F)cc3)cnc2c1 [Compound I-209, 3-(4-fluorobenzyl)-N-hydroxy-4-oxo-3,4-dihydroquinazoline-7-carboxamide]",95.9
9,"O=C(NO)c1ccc2c(=O)n(Cc3cccc(C(F)(F)F)c3)cnc2c1 [Compound I-16, N-hydroxy-4-oxo-3-[3-(trifluoromethyl)benzyl]-3,4-dihydroquinazoline-7-carboxamide]",95.8
10,"O=C(NO)c1ccc2ncn(Cc3ccccn3)c(=O)c2c1 [Compound I-193, N-hydroxy-4-oxo-3-(pyridin-2-ylmethyl)-3,4-dihydroquinazoline-6-carboxamide]",79.1
11,"COc1ccccc1OCCCn1ccc2ccc(C(=O)NO)cc2c1=O [Compound I-240, N-hydroxy-2-[3-(2-methoxyphenoxy)propyl]-1-oxo-1,2-dihydroisoquinoline-7-carboxamide]",96
12,"O=C(NO)c1ccc2c(=O)[nH]c(CNC3CCNCC3)nc2c1 [Compound I-146, N-hydroxy-4-oxo-2-[(piperidin-4-ylamino)methyl]-3,4-dihydroquinazoline-7-carboxamide]",65.7
13,"CC(C)CCCn1cnc2cc(C(=O)NO)ccc2c1=O [Compound I-275, N-hydroxy-3-(4-methylpentyl)-4-oxo-3,4-dihydroquinazoline-7-carboxamide]",94.9
14,"CC(C)n1ccc2ccc(C(=O)NO)cc2c1=O [Compound I-171, N-hydroxy-2-isopropyl-1-oxo-1,2-dihydroisoquinoline-7-carboxamide]",87
15,"Cn1c(NCc2ccc(Cl)cc2)nc2ccc(C(=O)NO)cc2c1=O [Compound I-165, 2-[(4-chlorobenzyl)amino]-N-hydroxy-3-methyl-4-oxo-3,4-dihydroquinazoline-6-carboxamide]",59.5
16,"O=C(NO)c1ccc2ccn(CCCN3CCCCC3)c(=O)c2c1 [Compound I-170, N-hydroxy-1-oxo-2-(3-piperidin-1-ylpropyl)-1,2-dihydroisoquinoline-7-carboxamide]",67.1
17,"O=C(NO)c1ccc2ccn(Cc3csc4ccc(Cl)cc34)c(=O)c2c1 [Compound I-211, 2-[(5-chloro-1-benzothien-3-yl)methyl]-N-hydroxy-1-oxo-1,2-dihydroisoquinoline-7-carboxamide]",92.3
18,"COCCOCCn1ccc2ccc(C(=O)NO)cc2c1=O [Compound I-228, N-hydroxy-2-[2-(2-methoxyethoxy)ethyl]-1-oxo-1,2-dihydroisoquinoline-7-carboxamide]",86.9

# Source: patent publication US8765773B2, “Substituted hydroxamic acids and uses thereof” (Millennium Pharmaceuticals, Inc., priority 2010, dated 2014)
